# Laboratory results as given in patent US20210255193A1, “LYSINE REACTIVE PROBES AND USES THEREOF” (The Scripps Research Institute, priority 2017, published 2021).
# Assays:
# Experiment in all cases: competitive isoTOP-ABPP
# Assay type in all cases: binding
# [1] = target: T1, MTOR Serine/threonine-protein kinase mTOR (Homo sapiens, UniProt P42345); conditions: for isoTOP-ABPP ratio, lysine P42345_K2066: 50 uM_231_sol_in vitro; for isoTOP-ABPP reactivity ratio at lysine P42345_K2066 / isoTOP-ABPP ratio (R) at liganded lysine P42345_K2066: 50 uM, in vitro; for isoTOP-ABPP reactivity ratio at lysine P42345_K2066: 231 sol; for isoTOP-ABPP ratio (R) at liganded lysine P42345_K2066: sol, 231
# T1 construct: isoTOP-ABPP experiments performed in cell lysates (in vitro); endogenous in cells; host or cells: soluble proteome of human cancer cell lines (MDA-MB-231; Ramos and Jurkat also prepared)
# Summary of the method: (§1)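 Cell lysate treated in vitro with fragments (50 μM activated esters, 100 μM guanidinylating agents) or DMSO, labelled 1 h at ambient temperature with 0.1 mM STP-alkyne, CuAAC-tagged with light/heavy TEV tags, analysed by MS. R = DMSO/compound MS1 peak-area ratio; lysines with R≥4 called liganded.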
# [2] = target: T2, KPNA2 Importin subunit alpha-2 (Homo sapiens, UniProt P52292); conditions: for isoTOP-ABPP ratio, lysine P52292_K459: 50 uM_231_sol_in vitro; for isoTOP-ABPP reactivity ratio at lysine P52292_K459 / isoTOP-ABPP ratio (R) at liganded lysine P52292_K459: 50 uM, in vitro; for isoTOP-ABPP reactivity ratio at lysine P52292_K459: 231 sol; for isoTOP-ABPP ratio (R) at liganded lysine P52292_K459: sol, 231
# T2 construct: isoTOP-ABPP experiments performed in cell lysates (in vitro); endogenous in cells; host or cells: soluble proteome of human cancer cell lines (MDA-MB-231, Ramos, Jurkat)
# Summary of the method: as §1
# [3] = target: T3, RINT1 RAD50-interacting protein 1 (Homo sapiens, UniProt Q6NUQ1); conditions: for isoTOP-ABPP ratio, lysine Q6NUQ1_K771: 50 uM_231_sol_in vitro; for isoTOP-ABPP reactivity ratio at lysine Q6NUQ1_K771 / isoTOP-ABPP ratio (R) at liganded lysine Q6NUQ1_K771: 50 uM, in vitro; for isoTOP-ABPP reactivity ratio at lysine Q6NUQ1_K771: 231 sol; for isoTOP-ABPP ratio (R) at liganded lysine Q6NUQ1_K771: sol, 231
# T3 construct: isoTOP-ABPP experiments performed in cell lysates (in vitro); endogenous in cells; host or cells: soluble proteome of human cancer cell lines (MDA-MB-231; Ramos and Jurkat also prepared)
# T3 sequence (Q6NUQ1 whole entry): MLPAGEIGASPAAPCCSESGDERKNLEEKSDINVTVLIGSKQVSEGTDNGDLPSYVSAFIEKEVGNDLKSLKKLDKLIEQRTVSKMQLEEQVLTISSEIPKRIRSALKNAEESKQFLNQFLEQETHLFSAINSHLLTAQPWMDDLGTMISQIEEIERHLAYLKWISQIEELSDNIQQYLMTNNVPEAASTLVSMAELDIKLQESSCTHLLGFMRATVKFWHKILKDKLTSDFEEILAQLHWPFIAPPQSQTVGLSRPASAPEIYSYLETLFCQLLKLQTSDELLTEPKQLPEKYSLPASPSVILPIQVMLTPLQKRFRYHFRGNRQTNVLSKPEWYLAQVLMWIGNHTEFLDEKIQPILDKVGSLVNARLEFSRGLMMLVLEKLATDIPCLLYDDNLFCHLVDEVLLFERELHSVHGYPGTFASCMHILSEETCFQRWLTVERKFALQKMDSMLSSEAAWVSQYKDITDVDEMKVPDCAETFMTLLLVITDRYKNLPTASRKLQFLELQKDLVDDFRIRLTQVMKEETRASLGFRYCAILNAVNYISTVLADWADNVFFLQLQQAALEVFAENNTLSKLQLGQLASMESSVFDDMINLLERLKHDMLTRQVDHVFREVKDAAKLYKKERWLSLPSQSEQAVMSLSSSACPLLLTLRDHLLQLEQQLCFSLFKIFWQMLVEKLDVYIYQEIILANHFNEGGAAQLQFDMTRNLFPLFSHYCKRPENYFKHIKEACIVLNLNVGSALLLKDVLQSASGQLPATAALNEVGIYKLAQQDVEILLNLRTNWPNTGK
# Summary of the method: as §1
# [4] = target: T4, EEF2 Elongation factor 2 (Homo sapiens, UniProt P13639); conditions: for isoTOP-ABPP ratio, lysine P13639_K235 / isoTOP-ABPP ratio, lysine P13639_K318: 50 uM_231_sol_in vitro; for isoTOP-ABPP reactivity ratio at lysine P13639_K235 / isoTOP-ABPP reactivity ratio at lysine P13639_K318 / isoTOP-ABPP ratio (R) at liganded lysine P13639_K235 / isoTOP-ABPP ratio (R) at liganded lysine P13639_K318: 50 uM, in vitro; for isoTOP-ABPP reactivity ratio at lysine P13639_K235 / isoTOP-ABPP reactivity ratio at lysine P13639_K318: 231 sol; for isoTOP-ABPP ratio (R) at liganded lysine P13639_K235 / isoTOP-ABPP ratio (R) at liganded lysine P13639_K318: sol, 231
# T4 construct: isoTOP-ABPP experiments performed in cell lysates (in vitro); endogenous in cells; host or cells: soluble proteome of human cancer cell lines (MDA-MB-231; Ramos and Jurkat also prepared)
# Summary of the method: as §1
# [5] = target: T5, XRCC6 X-ray repair cross-complementing protein 6 (Homo sapiens, UniProt P12956); conditions: for isoTOP-ABPP ratio, lysine P12956_K351: 50 uM_231_sol_in vitro; for isoTOP-ABPP reactivity ratio at lysine P12956_K351 / isoTOP-ABPP ratio (R) at liganded lysine P12956_K351: 50 uM, in vitro; for isoTOP-ABPP reactivity ratio at lysine P12956_K351: 231 sol; for isoTOP-ABPP ratio (R) at liganded lysine P12956_K351: sol, 231
# T5 construct: isoTOP-ABPP experiments performed in cell lysates (in vitro); endogenous in cells; host or cells: soluble proteome of human cancer cell lines (MDA-MB-231; Ramos and Jurkat also prepared)
# T5 sequence (P12956 2-609 limits assumed): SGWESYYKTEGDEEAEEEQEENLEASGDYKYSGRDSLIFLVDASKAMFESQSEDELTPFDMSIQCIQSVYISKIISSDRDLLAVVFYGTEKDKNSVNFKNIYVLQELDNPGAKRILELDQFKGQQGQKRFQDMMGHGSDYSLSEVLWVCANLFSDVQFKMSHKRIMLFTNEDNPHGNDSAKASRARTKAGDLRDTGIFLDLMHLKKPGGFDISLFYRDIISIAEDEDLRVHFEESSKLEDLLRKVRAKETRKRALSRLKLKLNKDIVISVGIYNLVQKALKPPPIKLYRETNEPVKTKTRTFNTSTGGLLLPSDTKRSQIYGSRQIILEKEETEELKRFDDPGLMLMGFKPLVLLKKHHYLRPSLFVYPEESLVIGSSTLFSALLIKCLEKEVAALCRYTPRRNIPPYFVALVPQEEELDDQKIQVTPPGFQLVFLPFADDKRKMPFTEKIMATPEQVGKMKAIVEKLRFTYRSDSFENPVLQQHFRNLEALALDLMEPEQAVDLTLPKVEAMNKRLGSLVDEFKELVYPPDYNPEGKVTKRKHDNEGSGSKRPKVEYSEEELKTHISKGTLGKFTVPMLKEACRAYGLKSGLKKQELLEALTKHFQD
# T5 sequence (P13010 2-732 partner limits assumed): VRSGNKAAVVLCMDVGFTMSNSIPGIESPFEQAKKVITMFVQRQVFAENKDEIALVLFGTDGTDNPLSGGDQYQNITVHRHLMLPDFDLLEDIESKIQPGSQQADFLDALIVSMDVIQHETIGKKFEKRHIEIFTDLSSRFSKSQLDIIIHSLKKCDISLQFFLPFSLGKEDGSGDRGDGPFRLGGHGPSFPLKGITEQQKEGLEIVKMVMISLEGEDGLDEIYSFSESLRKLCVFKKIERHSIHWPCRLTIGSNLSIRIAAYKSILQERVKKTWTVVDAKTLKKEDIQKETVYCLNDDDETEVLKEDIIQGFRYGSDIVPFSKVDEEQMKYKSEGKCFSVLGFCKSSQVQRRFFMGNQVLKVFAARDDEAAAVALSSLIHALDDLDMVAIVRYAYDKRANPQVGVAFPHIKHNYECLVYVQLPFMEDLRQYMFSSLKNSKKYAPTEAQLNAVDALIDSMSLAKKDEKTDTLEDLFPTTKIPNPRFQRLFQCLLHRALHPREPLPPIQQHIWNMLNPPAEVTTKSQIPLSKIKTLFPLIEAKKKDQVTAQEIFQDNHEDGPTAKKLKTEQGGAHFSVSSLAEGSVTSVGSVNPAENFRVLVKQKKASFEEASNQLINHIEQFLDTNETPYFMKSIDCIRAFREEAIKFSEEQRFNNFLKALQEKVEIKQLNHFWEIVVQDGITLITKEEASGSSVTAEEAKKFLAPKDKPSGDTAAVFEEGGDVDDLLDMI
# Summary of the method: as §1
# [6] = target: T6, PFKL 6-phosphofructokinase, liver type (Homo sapiens, UniProt P17858); conditions: for isoTOP-ABPP ratio, lysine P17858_K315 / isoTOP-ABPP ratio, lysine P17858_K677 / isoTOP-ABPP ratio, lysine P17858_K715: 50 uM_231_sol_in vitro; for isoTOP-ABPP ratio, lysine P17858_K677: possible other lysine P17858_K681; for isoTOP-ABPP ratio, lysine P17858_K715: possible other lysine P17858_K714; for isoTOP-ABPP reactivity ratio at lysine P17858_K315 / isoTOP-ABPP reactivity ratio at lysine P17858_K677 / isoTOP-ABPP reactivity ratio at lysine P17858_K715: 231 sol
# T6 construct: isoTOP-ABPP experiments performed in cell lysates (in vitro); endogenous in cells; host or cells: soluble proteome of human cancer cell lines (MDA-MB-231; Ramos and Jurkat also prepared)
# T6 sequence (P17858 1-780): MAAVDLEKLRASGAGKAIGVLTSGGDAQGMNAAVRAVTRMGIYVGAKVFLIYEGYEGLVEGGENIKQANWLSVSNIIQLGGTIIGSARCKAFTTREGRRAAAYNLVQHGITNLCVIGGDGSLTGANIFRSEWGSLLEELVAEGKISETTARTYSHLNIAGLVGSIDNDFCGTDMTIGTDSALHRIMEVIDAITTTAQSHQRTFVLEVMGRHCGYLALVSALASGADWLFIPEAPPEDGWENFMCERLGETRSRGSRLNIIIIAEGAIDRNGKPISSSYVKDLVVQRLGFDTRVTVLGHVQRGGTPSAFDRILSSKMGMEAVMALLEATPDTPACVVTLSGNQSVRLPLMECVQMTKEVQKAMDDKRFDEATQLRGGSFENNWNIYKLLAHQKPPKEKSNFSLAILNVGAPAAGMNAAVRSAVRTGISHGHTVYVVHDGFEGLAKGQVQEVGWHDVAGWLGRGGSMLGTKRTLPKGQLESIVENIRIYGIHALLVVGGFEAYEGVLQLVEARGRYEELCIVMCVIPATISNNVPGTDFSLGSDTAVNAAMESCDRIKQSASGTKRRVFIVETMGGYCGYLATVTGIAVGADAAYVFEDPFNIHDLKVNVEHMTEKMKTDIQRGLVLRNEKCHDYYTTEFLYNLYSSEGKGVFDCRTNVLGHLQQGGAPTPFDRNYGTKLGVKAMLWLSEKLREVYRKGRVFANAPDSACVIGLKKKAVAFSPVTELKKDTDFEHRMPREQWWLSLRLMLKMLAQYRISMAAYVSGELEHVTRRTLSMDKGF
# Summary of the method: as §1
compound,measurement,setting,value
"N#Cc1ccc(C(=O)Oc2ccc([N+](=O)[O-])cc2[N+](=O)[O-])cc1 [fragment 44, 2,4-Dinitrophenyl 4-cyanobenzoate]","isoTOP-ABPP ratio, lysine P42345_K2066",[1],1.7
same,"isoTOP-ABPP ratio, lysine P52292_K459",[2],1.6
same,"isoTOP-ABPP ratio, lysine Q6NUQ1_K771",[3],1.7
same,"isoTOP-ABPP ratio, lysine P13639_K235",[4],1.0
same,"isoTOP-ABPP ratio, lysine P13639_K318",[4],1.1
same,"isoTOP-ABPP ratio, lysine P12956_K351",[5],1.1
same,"isoTOP-ABPP ratio, lysine P17858_K315",[6],0.8
same,"isoTOP-ABPP ratio, lysine P17858_K677",[6],1.7
same,"isoTOP-ABPP ratio, lysine P17858_K715",[6],1.8
"O=C(Oc1ccc([N+](=O)[O-])cc1[N+](=O)[O-])C(c1ccccc1)c1ccccc1 [fragment 30, 2,4-Dinitrophenyl 2,2-diphenylacetate]",isoTOP-ABPP reactivity ratio at lysine P42345_K2066,[1],3.5
same,isoTOP-ABPP reactivity ratio at lysine P52292_K459,[2],4.3
same,isoTOP-ABPP reactivity ratio at lysine Q6NUQ1_K771,[3],1.7
same,isoTOP-ABPP reactivity ratio at lysine P13639_K235,[4],1.4
same,isoTOP-ABPP reactivity ratio at lysine P13639_K318,[4],1.4
same,isoTOP-ABPP reactivity ratio at lysine P12956_K351,[5],20.0
same,isoTOP-ABPP reactivity ratio at lysine P17858_K315,"[6]; 50 uM, in vitro",4.9
same,isoTOP-ABPP reactivity ratio at lysine P17858_K677,"[6]; 50 uM, in vitro",20.0
"O=C(ON1C(=O)CCC1=O)c1cc(C(F)(F)F)cc(C(F)(F)F)c1 [fragment 46, 3,5-Bis(trifluoromethyl)benzoic acid NHS ester]","isoTOP-ABPP ratio, lysine P42345_K2066",[1],1.5
same,"isoTOP-ABPP ratio, lysine P52292_K459",[2],1.4
same,"isoTOP-ABPP ratio, lysine Q6NUQ1_K771",[3],20.0
same,"isoTOP-ABPP ratio, lysine P13639_K235",[4],1.3
same,"isoTOP-ABPP ratio, lysine P13639_K318",[4],1.1
same,"isoTOP-ABPP ratio, lysine P12956_K351",[5],2.5
same,"isoTOP-ABPP ratio, lysine P17858_K315",[6],0.6
same,"isoTOP-ABPP ratio, lysine P17858_K677",[6],1.4
same,"isoTOP-ABPP ratio, lysine P17858_K715",[6],0.8
"O=C(Oc1ccc([N+](=O)[O-])cc1[N+](=O)[O-])c1ccc(-c2ccccc2)cc1 [fragment 37, 2,4-Dinitrophenyl [1,1′-biphenyl]-4-carboxylate]",isoTOP-ABPP ratio (R) at liganded lysine P42345_K2066,[1],1.0
same,isoTOP-ABPP ratio (R) at liganded lysine P52292_K459,[2],0.9
same,isoTOP-ABPP ratio (R) at liganded lysine Q6NUQ1_K771,[3],1.3
same,isoTOP-ABPP ratio (R) at liganded lysine P13639_K235,[4],1.0
same,isoTOP-ABPP ratio (R) at liganded lysine P13639_K318,[4],1.0
same,isoTOP-ABPP ratio (R) at liganded lysine P12956_K351,[5],1.3
same,isoTOP-ABPP ratio (R) at liganded lysine P17858_K315,"[6]; 50 uM, in vitro, sol, 231",1.3
same,isoTOP-ABPP ratio (R) at liganded lysine P17858_K677,"[6]; 50 uM, in vitro, sol, 231",1.1
same,isoTOP-ABPP ratio (R) at liganded lysine P17858_K715,"[6]; 50 uM, in vitro, sol, 231",1.1
"COc1cc(CCC(=O)Oc2ccc([N+](=O)[O-])cc2[N+](=O)[O-])cc(OC)c1OC [fragment 33, 2,4-Dinitrophenyl 3-(3,4,5-trimethoxyphenyl)propanoate]",isoTOP-ABPP reactivity ratio at lysine P42345_K2066,[1],1.1
same,isoTOP-ABPP reactivity ratio at lysine P52292_K459,[2],1.8
same,isoTOP-ABPP reactivity ratio at lysine Q6NUQ1_K771,[3],1.0
same,isoTOP-ABPP reactivity ratio at lysine P13639_K235,[4],1.0
same,isoTOP-ABPP reactivity ratio at lysine P13639_K318,[4],0.9
same,isoTOP-ABPP reactivity ratio at lysine P12956_K351,[5],2.5
same,isoTOP-ABPP reactivity ratio at lysine P17858_K315,"[6]; 50 uM, in vitro",0.8
same,isoTOP-ABPP reactivity ratio at lysine P17858_K677,"[6]; 50 uM, in vitro",2.0
same,isoTOP-ABPP reactivity ratio at lysine P17858_K715,"[6]; 50 uM, in vitro",1.1
"CC(=O)Oc1ccc([N+](=O)[O-])cc1[N+](=O)[O-] [fragment 43, 2,4-Dinitrophenyl acetate]",isoTOP-ABPP ratio (R) at liganded lysine P42345_K2066,[1],1.6
same,isoTOP-ABPP ratio (R) at liganded lysine P52292_K459,[2],2.6
same,isoTOP-ABPP ratio (R) at liganded lysine Q6NUQ1_K771,[3],1.0
same,isoTOP-ABPP ratio (R) at liganded lysine P13639_K235,[4],1.1
same,isoTOP-ABPP ratio (R) at liganded lysine P13639_K318,[4],1.2
same,isoTOP-ABPP ratio (R) at liganded lysine P12956_K351,[5],1.5
same,isoTOP-ABPP ratio (R) at liganded lysine P17858_K677,"[6]; 50 uM, in vitro, sol, 231",3.2
same,isoTOP-ABPP ratio (R) at liganded lysine P17858_K715,"[6]; 50 uM, in vitro, sol, 231",1.3
"CCn1cc(C(=O)Oc2c(F)c(F)c(F)c(F)c2F)c(=O)c2ccc(C)nc21 [fragment 28, Pentafluorophenyl 1-ethyl-7-methyl-4-oxo-1,4-dihydro-1,8-naphthyridine-3-carboxylate]",isoTOP-ABPP reactivity ratio at lysine P42345_K2066,[1],1.0
same,isoTOP-ABPP reactivity ratio at lysine P52292_K459,[2],1.3
same,isoTOP-ABPP reactivity ratio at lysine Q6NUQ1_K771,[3],0.8
same,isoTOP-ABPP reactivity ratio at lysine P13639_K235,[4],1.4
same,isoTOP-ABPP reactivity ratio at lysine P13639_K318,[4],1.6
same,isoTOP-ABPP reactivity ratio at lysine P12956_K351,[5],1.9
same,isoTOP-ABPP reactivity ratio at lysine P17858_K677,"[6]; 50 uM, in vitro",1.1
same,isoTOP-ABPP reactivity ratio at lysine P17858_K715,"[6]; 50 uM, in vitro",1.5
